Test results published in PubChem BioAssay AID2060601 (Molecular Pharmacology Branch, DTP, NCI, 2025).
“And” between values parts separate entries of the source, which are not always exact repeats. Identical values can stand only once.

System: 874868-142-R-J2-PDC complex spheroids, growth % test/control
Assay: Anticancer human tumor 874868-142-R-J2-PDC patient-derived head and neck squamous carcinoma cell line growth inhibition [CLK]
Conditions: for viability, T/C: stronger effect = lower value
In short: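 Multi-cell-type spheroids combined patient-derived tumor cells with HUVEC endothelial cells and human mesenchymal stem cells. Paired agents were dosed in half-log steps down from about clinical Cmax, or from 10 microM where Cmax was unknown.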

[1] = curve of first compound, second compound 0.0316 µM
[2] = curve of first compound, second compound 0.1 µM
[3] = curve of first compound, second compound 0.316 µM
[4] = curve of first compound, second compound 1 µM
[5] = curve of first compound, second compound 3.16 µM
[6] = curve of first compound, second compound 10 µM
[7] = second compound 0.0316 µM, first compound 0.0316 µM
[8] = second compound 0.0316 µM, first compound 0.1 µM
[9] = second compound 0.0316 µM, first compound 0.316 µM
[10] = second compound 0.0316 µM, first compound 1 µM
[11] = second compound 0.0316 µM, first compound 3.16 µM
[12] = second compound 0.0316 µM, first compound 10 µM
[13] = second compound 0.1 µM, first compound 0.0316 µM
[14] = second compound 0.1 µM, first compound 0.1 µM
[15] = second compound 0.1 µM, first compound 0.316 µM
[16] = second compound 0.1 µM, first compound 1 µM
[17] = second compound 0.1 µM, first compound 3.16 µM
[18] = second compound 0.1 µM, first compound 10 µM
[19] = second compound 0.316 µM, first compound 0.0316 µM
[20] = second compound 0.316 µM, first compound 0.1 µM
[21] = second compound 0.316 µM, first compound 0.316 µM
[22] = second compound 0.316 µM, first compound 1 µM
[23] = second compound 0.316 µM, first compound 3.16 µM
[24] = second compound 0.316 µM, first compound 10 µM
[25] = second compound 1 µM, first compound 0.0316 µM
[26] = second compound 1 µM, first compound 0.1 µM
[27] = second compound 1 µM, first compound 0.316 µM
[28] = second compound 1 µM, first compound 1 µM
[29] = second compound 1 µM, first compound 3.16 µM
[30] = second compound 1 µM, first compound 10 µM
[31] = second compound 3.16 µM, first compound 0.0316 µM
[32] = second compound 3.16 µM, first compound 0.1 µM
[33] = second compound 3.16 µM, first compound 0.316 µM
[34] = second compound 3.16 µM, first compound 1 µM
[35] = second compound 3.16 µM, first compound 3.16 µM
[36] = second compound 3.16 µM, first compound 10 µM
[37] = second compound 10 µM, first compound 0.0316 µM
[38] = second compound 10 µM, first compound 0.1 µM
[39] = second compound 10 µM, first compound 0.316 µM
[40] = second compound 10 µM, first compound 1 µM
[41] = second compound 10 µM, first compound 3.16 µM
[42] = second compound 10 µM, first compound 10 µM
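Also: spheroids exposed to the compounds for 7 days.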
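For viability, T/C in this document: 100% = DMSO vehicle control viability.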

With `CC1COCCN1c1cc(C2(S(C)(=N)=O)CC2)nc(-c2ccnc3[nH]ccc23)n1` (stereo not drawn) + CN1CCN(c2cc(C(=O)Nc3cc4cc(-c5cnn(C)c5)ccc4cn3)ccn2)CC1 the IC50 [1] was 1900 nM, the IC50 [2] was 578 nM and the IC50 [3] was < 31.6 nM. For the same molecule, the IC50 [4] was < 31.6 nM, the IC50 [5] was < 31.6 nM and the IC50 [6] was < 31.6 nM. The viability, T/C [7] was 87.7%, the viability, T/C [8] was 82.5% and the viability, T/C [9] was 71.3%. It also gave a viability, T/C [10] of 73.5%, a viability, T/C [11] of 31.2% and a viability, T/C [12] of 27.6%. It also gave a viability, T/C [13] of 68.9%, a viability, T/C [14] of 60.9% and a viability, T/C [15] of 59.3%. It also gave a viability, T/C [16] of 42%, a viability, T/C [17] of 20.8% and a viability, T/C [18] of 20.9%. For the same molecule, the viability, T/C [19] was 16.6%, the viability, T/C [20] was 19.8% and the viability, T/C [21] was 18.4%. It also gave a viability, T/C [22] of 10.8%, a viability, T/C [23] of 13.7% and a viability, T/C [24] of 7.51%. It also gave a viability, T/C [25] of 0.41%, a viability, T/C [26] of 0.3% and a viability, T/C [27] of 0.49%. The viability, T/C [28] was 0.28%, the viability, T/C [29] was 0.29% and the viability, T/C [30] was 0.24%. For the same molecule, the viability, T/C [31] was 0.19%, the viability, T/C [32] was 0.25% and the viability, T/C [33] was 0.22%. The viability, T/C [34] was 0.29%, the viability, T/C [35] was 1.32% and the viability, T/C [36] was 0.36%. For the same molecule, the viability, T/C [37] was 5.76%, the viability, T/C [38] was 0.21% and the viability, T/C [39] was 1.83%. The viability, T/C [40] was 0.21%, the viability, T/C [41] was 0.21% and the viability, T/C [42] was 0.23%.
With `CCCS(=O)(=O)Nc1ccc(F)c(C(=O)c2c[nH]c3ncc(-c4ccc(Cl)cc4)cc23)c1F` + CNC(=O)c1ccc(Nc2nc(OC3CCCC3)c3c(-c4ccc5nc(C)oc5c4)c[nH]c3n2)c(OC)c1 the IC50 [1] was > 10000 nM, the IC50 [2] was > 10000 nM and the IC50 [3] was > 10000 nM. The IC50 [4] was < 31.6 nM, the IC50 [5] was < 31.6 nM and the IC50 [6] was < 31.6 nM. The viability, T/C [7] was 119%, the viability, T/C [8] was 122% and the viability, T/C [9] was 133%. For the same molecule, the viability, T/C [10] was 143%, the viability, T/C [11] was 139% and the viability, T/C [12] was 87.8%. The viability, T/C [13] was 101%, the viability, T/C [14] was 104% and the viability, T/C [15] was 110%. It also gave a viability, T/C [16] of 144%, a viability, T/C [17] of 140% and a viability, T/C [18] of 84.6%. It also gave a viability, T/C [19] of 62.2%, a viability, T/C [20] of 59.6% and a viability, T/C [21] of 59.6%. For the same molecule, the viability, T/C [22] was 61.8%, the viability, T/C [23] was 67.9% and the viability, T/C [24] was 53.2%. For the same molecule, the viability, T/C [25] was 40.9%, the viability, T/C [26] was 38.2% and the viability, T/C [27] was 46.8%. For the same molecule, the viability, T/C [28] was 54.9%, the viability, T/C [29] was 49.3% and the viability, T/C [30] was 45.3%. For the same molecule, the viability, T/C [31] was 41.2%, the viability, T/C [32] was 38% and the viability, T/C [33] was 41.8%. It also gave a viability, T/C [34] of 38.8%, a viability, T/C [35] of 53.8% and a viability, T/C [36] of 32%. The viability, T/C [37] was 38.8%, the viability, T/C [38] was 44.1% and the viability, T/C [39] was 50.2%. The viability, T/C [40] was 37.6%, the viability, T/C [41] was 52.4% and the viability, T/C [42] was 45.2%.
`Nc1ccccc1NC(=O)c1ccc(CNC(=O)OCc2cccnc2)cc1` was tested, and the viability, T/C (compound 0.0316 µM) was 97% and 102%, the viability, T/C (compound 0.1 µM) was 95.4% and 87.3% and the viability, T/C (compound 0.316 µM) was 90% and 113%. For the same molecule, the viability, T/C (compound 1 µM) was 110% and 124%, the viability, T/C (compound 3.16 µM) was 95.8% and 101% and the viability, T/C (compound 10 µM) was 36.9% and 26.4%. For the same molecule, the IC50 (curve of compound) was 7730 nM and 6990 nM.
`CC(Nc1ccc2c(c1)OCCn1cc(N3C(=O)OCC3C(F)F)nc1-2)C(N)=O` (stereo not drawn) gave a viability, T/C (compound 0.0316 µM) of 89.2%, a viability, T/C (compound 0.1 µM) of 38.7% and a viability, T/C (compound 0.316 µM) of 28.3%. It also gave a viability, T/C (compound 1 µM) of 23.4%, a viability, T/C (compound 3.16 µM) of 13.5% and a viability, T/C (compound 10 µM) of 13.2%. For the same molecule, the IC50 (curve of compound) was 82.4 nM.
